Source: patent EP3120851A1, “4-AMINO-6-(2,6-DICHLOROPHENYL)-8-METHYL-2-(PHENYLAMINO)-PYRIDO[2,3-D]PYRIMIDIN-7(8H)-ONE FOR TREATMENT OF SOLID CANCERS” (Pangaea Biotech S.L., priority 2015, dated 2017)

Legend:
Experiment in all cases: radiometric protein kinase assay (33PanQinase Activity Assay)
Type in all cases: biochemical
Conditions in all cases: singlicate, read-out: residual activity
[1] = biological target: T1, ABL2 (Homo sapiens, UniProt P42684)
T1 construct: GST or His (not specified per kinase); purchased ProQinase (panel service); host or cells: Sf9 insect cells or E. coli
Experimental: (§1) In a first experiment, the kinase inhibition profile of the compound of formula (1) was evaluated at Proqinase (http://www.proqinase.com) by measuring residual activity values at a concentration of 10 µM of the test compound in singlicate in front of the following kinases: ABL2, EPHA3, CSF1-R, DDR2 wt, DDR2 N456 S, EGF-R d746-750, EGF-R d747-752/P753S, EGF-R G719C, EGF-R G719S, EGF-R L858R, EGF-R L861Q, EGF-R wt, EPHA1, EPHA2, EPHB1, ERBB4, LCK, MINK1, RAF1 Y340D/Y341D (untagged), RIPK2, STK17A. In a second experiment, the kinase inhibition profile of the compound of formula (1) was evaluated at Proqinase (http://www.proqinase.com) by measuring residual activity values at a concentration of 0.5 and 10 µM of the test compound in singlicate in front of a panel of 300 kinases using the following protocol:
(§2) The compounds were dissolved to 1 x 10^-03 M stock solutions in 100% DMSO. Subsequently, 100 µl of each stock solution were transferred into wells A3-F12 of a microtiter plate ("master plate"). Wells A1-F2 were filled with 100 µl 100% DMSO as controls. 5 x 10 µl of the master plate were aliquoted into 5 copy plates, which were stored at -20° Celsius until use. For the testing of each group of up to 8 kinases, one copy plate was used.
(§3) In the process, 90 µl H2O were added to each well of a copy plate. To minimize precipitation, the H2O was added to each well only a few minutes before the transfer of the compound solutions into the assay plates. The plate was shaken thoroughly, resulting in a "compound dilution plate" with a compound concentration of 1 x 10^-04 M/10 % DMSO. This plate was used for the transfer of 5 µl compound solution into the assay plates. The final volume of the assay was 50 µl. All compounds were tested at 1 x 10^-05 M in singlicate. The final DMSO concentration in the reaction cocktails was 1 % in all cases. The compound dilution plates were disposed at the end of each working day.
(§4) A radiometric protein kinase assay (^33PanQinase® Activity Assay) was used for measuring the kinase activity of the corresponding protein kinases. All kinase assays were performed in 96-well FlashPlatesTM from Perkin Elmer (Boston, MA, USA) in a 50 µl reaction volume. The reaction cocktail was pipetted in 4 steps in the following order: • 10 µl of non-radioactive ATP solution (in H2O) • 25 µl of assay buffer/ [γ-33P]-ATP mixture • 5 µl of test sample in 10% DMSO • 10 µl of enzyme/substrate mixture
(§5) The protein kinase reaction cocktails were incubated at 30°C for 60 minutes. The reaction was stopped with 50 µl of 2 % (v/v) H3PO4, plates were aspirated and washed two times with 200 µl 0.9 % (w/v) NaCl. All assays were performed with a BeckmanCoulter Biomek 2000/SL robotic system. Incorporation of ^33Pi (counting of "cpm") was determined with a microplate scintillation counter (Microbeta, Wallac).
(§6) All protein kinase assays were performed with a BeckmanCoulter Core robotic system.
(§7) All protein kinases provided by ProQinase were expressed in Sf9 insect cells or in E.coli as recombinant GST-fusion proteins or His-tagged proteins. All kinases were produced from human cDNAs and purified by either GSH-affinity chromatography or immobilized metal. Affinity tags were removed from a number of kinases during purification. The purity of the protein kinases was examined by SDS-PAGE/Coomassie staining, the identity was checked by mass spectroscopy.
(§8) Kinases from external vendors (CAR = Carna Biosciences Inc.; INV = Life Technologies (Invitrogen Corporation); MIL = Merck-Millipore (Millipore Corporation)) were expressed, purified and quality-controlled by virtue of the vendors readings.
(§9) For each kinase, the median value of the cpm of six wells of column 1 of each assay plate was defined as "low control" (n=6). This value reflects unspecific binding of radioactivity to the plate in the absence of a protein kinase but in the presence of the substrate. […]

[2] = biological target: T2, EGF-R wt (Homo sapiens, UniProt P00533)
T2 construct: GST or His (not specified per kinase); purchased ProQinase (panel service); host or cells: Sf9 insect cells or E. coli
Experimental: as §1, §2, §3, §4, §5, §6, §7, §8, §9

[3] = biological target: T3, RAF1 Y340D/Y341D (untagged) (Homo sapiens, UniProt P04049, Y340D/Y341D)
T3 construct: purchased ProQinase (panel service); host or cells: Sf9 insect cells or E. coli
Experimental: as §1, §2, §3, §4, §5, §6, §7, §8, §9

T2 sequence (P00533 25-1210): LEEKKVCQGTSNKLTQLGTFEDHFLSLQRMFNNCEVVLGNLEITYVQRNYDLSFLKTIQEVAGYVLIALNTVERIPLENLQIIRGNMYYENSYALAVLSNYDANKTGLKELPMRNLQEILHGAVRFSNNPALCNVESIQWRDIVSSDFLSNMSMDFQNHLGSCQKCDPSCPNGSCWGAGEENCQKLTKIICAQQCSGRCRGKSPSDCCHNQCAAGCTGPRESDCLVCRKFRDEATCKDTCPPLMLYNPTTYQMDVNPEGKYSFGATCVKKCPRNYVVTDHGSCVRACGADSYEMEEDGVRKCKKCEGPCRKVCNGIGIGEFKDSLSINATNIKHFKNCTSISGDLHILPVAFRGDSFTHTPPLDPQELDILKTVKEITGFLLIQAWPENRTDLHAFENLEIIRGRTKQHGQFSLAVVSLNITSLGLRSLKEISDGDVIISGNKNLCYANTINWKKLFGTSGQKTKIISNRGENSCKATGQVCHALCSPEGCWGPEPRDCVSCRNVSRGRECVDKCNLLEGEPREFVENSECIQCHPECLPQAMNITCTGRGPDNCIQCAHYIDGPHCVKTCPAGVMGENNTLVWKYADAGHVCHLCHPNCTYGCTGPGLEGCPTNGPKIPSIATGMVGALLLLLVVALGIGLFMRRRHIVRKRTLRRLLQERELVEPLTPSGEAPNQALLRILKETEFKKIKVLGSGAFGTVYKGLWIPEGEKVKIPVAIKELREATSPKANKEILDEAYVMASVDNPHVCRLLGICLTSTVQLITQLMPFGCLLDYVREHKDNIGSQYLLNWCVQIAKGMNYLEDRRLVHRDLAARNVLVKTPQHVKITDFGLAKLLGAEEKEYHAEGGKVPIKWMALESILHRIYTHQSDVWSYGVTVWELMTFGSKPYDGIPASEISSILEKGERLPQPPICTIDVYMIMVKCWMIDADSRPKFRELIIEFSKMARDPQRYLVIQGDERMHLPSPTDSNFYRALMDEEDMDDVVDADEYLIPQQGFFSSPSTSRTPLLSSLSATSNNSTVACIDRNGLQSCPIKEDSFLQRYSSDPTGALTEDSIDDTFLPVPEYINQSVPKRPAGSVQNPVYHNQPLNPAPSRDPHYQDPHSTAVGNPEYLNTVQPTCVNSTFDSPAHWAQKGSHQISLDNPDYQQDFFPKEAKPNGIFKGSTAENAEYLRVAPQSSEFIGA
T1 sequence (P42684 whole entry): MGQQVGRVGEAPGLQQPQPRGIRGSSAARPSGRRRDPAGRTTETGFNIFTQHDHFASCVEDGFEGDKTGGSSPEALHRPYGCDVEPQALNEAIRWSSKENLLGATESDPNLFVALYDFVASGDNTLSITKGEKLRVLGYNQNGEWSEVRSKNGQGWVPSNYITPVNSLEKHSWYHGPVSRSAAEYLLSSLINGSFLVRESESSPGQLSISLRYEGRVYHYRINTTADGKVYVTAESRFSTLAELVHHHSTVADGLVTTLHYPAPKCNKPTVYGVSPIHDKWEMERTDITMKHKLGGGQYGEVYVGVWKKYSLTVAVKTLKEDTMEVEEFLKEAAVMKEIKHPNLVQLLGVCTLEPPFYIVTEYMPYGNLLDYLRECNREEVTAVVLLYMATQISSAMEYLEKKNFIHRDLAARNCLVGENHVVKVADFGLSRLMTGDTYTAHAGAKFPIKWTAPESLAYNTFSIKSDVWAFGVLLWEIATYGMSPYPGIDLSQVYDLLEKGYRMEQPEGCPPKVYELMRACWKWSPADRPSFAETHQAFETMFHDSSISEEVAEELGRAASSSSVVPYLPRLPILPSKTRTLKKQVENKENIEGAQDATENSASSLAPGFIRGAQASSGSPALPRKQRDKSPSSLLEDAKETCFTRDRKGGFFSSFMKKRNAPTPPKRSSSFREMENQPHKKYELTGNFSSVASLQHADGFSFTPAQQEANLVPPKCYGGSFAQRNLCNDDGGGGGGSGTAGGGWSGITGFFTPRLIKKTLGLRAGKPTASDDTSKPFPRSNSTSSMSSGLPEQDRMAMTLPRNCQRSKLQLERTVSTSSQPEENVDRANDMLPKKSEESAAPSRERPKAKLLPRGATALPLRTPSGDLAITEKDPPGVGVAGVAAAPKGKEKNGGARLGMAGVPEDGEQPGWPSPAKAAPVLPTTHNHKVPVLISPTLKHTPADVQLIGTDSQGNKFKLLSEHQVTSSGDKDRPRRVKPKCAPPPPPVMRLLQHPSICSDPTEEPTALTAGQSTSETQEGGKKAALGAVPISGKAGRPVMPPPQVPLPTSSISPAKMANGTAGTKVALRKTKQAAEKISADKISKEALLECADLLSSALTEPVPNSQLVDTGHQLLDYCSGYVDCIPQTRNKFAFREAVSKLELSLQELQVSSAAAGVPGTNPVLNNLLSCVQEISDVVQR
T3 sequence (P04049 whole entry Y340D/Y341D): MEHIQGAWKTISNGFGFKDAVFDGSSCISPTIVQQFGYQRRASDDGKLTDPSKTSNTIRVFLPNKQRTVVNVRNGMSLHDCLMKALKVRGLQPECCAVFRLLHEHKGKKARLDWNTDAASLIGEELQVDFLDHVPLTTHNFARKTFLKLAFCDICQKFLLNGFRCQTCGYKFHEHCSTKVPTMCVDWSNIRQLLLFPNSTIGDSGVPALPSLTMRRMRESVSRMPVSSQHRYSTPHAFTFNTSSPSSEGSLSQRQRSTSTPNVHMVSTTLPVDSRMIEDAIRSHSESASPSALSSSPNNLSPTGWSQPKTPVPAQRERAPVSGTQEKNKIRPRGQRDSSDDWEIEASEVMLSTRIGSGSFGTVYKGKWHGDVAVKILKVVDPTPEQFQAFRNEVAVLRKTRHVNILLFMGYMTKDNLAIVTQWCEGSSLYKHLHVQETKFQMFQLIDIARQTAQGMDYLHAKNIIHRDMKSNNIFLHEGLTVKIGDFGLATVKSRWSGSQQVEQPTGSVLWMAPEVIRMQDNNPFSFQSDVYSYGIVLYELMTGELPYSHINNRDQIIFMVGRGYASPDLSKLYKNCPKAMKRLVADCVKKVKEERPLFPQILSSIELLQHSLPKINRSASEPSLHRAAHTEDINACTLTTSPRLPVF

Q: Which remaining activity at 0.5 µM ([1]; 0.5 µM test compound) does the source give for `Cn1c(=O)c(-c2c(Cl)cccc2Cl)cc2c(N)nc(Nc3ccccc3)nc21` [Compound (1), 4-amino-6-(2,6-dichlorophenyl)-8-methyl-2-(phenylamino)-pyrido[2,3-d]pyrimidin-7(8H)-one] here?
A: Its remaining activity at 0.5 µM is 44%.

Q: And the remaining activity at 10 µM ([1]; 10 µM test compound)?
A: Its remaining activity at 10 µM is 13%.

Q: And the remaining activity at 0.5 µM ([2]; 0.5 µM test compound)?
A: The remaining activity at 0.5 µM was 47%.

Q: And the remaining activity at 10 µM ([2]; 10 µM test compound)?
A: The remaining activity at 10 µM was 16%.

Q: What about the remaining activity at 0.5 µM ([3]; 0.5 µM test compound) of the same molecule?
A: Its remaining activity at 0.5 µM is 57%.

Q: And the remaining activity at 10 µM ([3]; 10 µM test compound)?
A: Its remaining activity at 10 µM is 25%.
